{"source": "patent EP0568635B1", "about": "“IMPROVED GLYPHOSATE FORMULATIONS” (MONSANTO COMPANY, priority 1991, dated 1992)", "system": "Johnsongrass", "assay": "Greenhouse bioassay test of herbicidal activity, pot-grown weeds sprayed with a track sprayer", "type": "in vivo", "settings": "mean of four rates (1/4, 1/2, 3/4 and 1 pound glyphosate/acre; 0.28, 0.56, 0.84 and 1.12 kg/ha), 4 weeks after treatment, 0.25 % ethoxylated amine surfactant in all spray solutions", "procedure": "The results of the bioassay test of the Example 2 formulation are shown below. Roundup herbicide was used as a comparative of the prior art.\nIn all of the greenhouse bioassay tests provided in this specification, pot-grown weed species were sprayed with aqueous solutions of the glyphosate WSP formulations using a track sprayer calibrated to apply about 20 gallons/acre (187 liters/hectare) at about 30 psi ([…]).\nWSP formulations were prepared without Witconate surfactant. The surfactant was tank mixed into the spray solutions for bioassays.", "data": [{"molecule": "CC(C)N.O=C(O)CNCP(=O)(O)O", "note": "[Isopropylamine salt of glyphosate]", "values": [{"measurement": "% INHIBITION", "result": 55.2, "unit": "%"}]}]}
